By IC50 is commonly meant the concentration that inhibits the measured activity by half.

The target in this experiment is T1, HIV-integrase (Human immunodeficiency virus type 1 group M subtype B, UniProt P04585).
T1 construct: Recombinant integrase (0.26 ng) was incubated with the beads
The experiment in a line: in-vitro activity against HIV-integrase (HIV Integrase Inhibition, SPA bead assay). It counts as biochemical. To be noted: Table 1; recombinant integrase, activity class. On the procedure: To evaluate in-vitro activity against HIV-integrase, 5 pmole of biotin labeled substrate DNA was bound to 100 μg of Streptavidin coated PVT SPA beads (Amersham Pharmacia Biotech). Recombinant integrase (0.26 ng) was incubated with the beads for 90 min at 37° C. Unbound enzyme was removed by washing the complex followed by addition of inhibitors and […] of P33 labeled target DNA. The reaction was stopped by adding EDTA to a final concentration of 10 mM. Samples were counted in TopCountNXT (Packard) and the CPM was used as a measure of integration. The reaction condition was as described in Engelman, A. and Craigie, R. J. Vitrol. 1996, 69, 5908. The sequences of substrate and target DNA were described in Nucleic Acid Research 1994, 22, 1121.
`CN(C)S(=O)(=O)c1cc(F)ccc1CNC(=O)c1nc2n(c(=O)c1O)CCOC21CCCC1` [Example 28, N-[[(2-(dimethylamino)sulfonyl]-4-fluorophenyl)methyl]-6′,7′-dihydro-3′-hydroxy-4′-oxo-spiro[cyclopentane-1,9′(4′H)-pyrimido[2,1-c][1,4]oxazine]-2′-carboxamide]: the concentration for half-maximal inhibition (IC50) is 1 to 10 nM.

Turning to `O=C(NCc1cc(F)ccc1-n1cncn1)c1nc2n(c(=O)c1O)CCOC21CCCC1` [Example 29, N-[[5-fluoro-2-(1H-1,2,4-triazol-1-yl)phenyl]methyl]-6′,7′-dihydro-3′-hydroxy-4′-oxo-spiro[cyclopentane-1,9′(4′H)-pyrimido[2,1-c][1,4]oxazine]-2′-carboxamide], the IC50 fell in the range of 1 to 10 nM.

As for `O=C(NCCc1ccc(F)cc1)c1nc2n(c(=O)c1O)CCOC21CCCC1` [Example 30, N-[2-(4-fluorophenyl)ethyl]-6′,7′-dihydro-3′-hydroxy-4′-oxo-spiro[cyclopentane-1,9′(4H)-pyrimido[2,1-c][1,4]oxazine]-2′-carboxamide], the IC50 fell in the range of 10 to 100 nM.

For `O=C(NCCCc1ccc(F)cc1)c1nc2n(c(=O)c1O)CCOC21CCCC1` [Example 31, N-[3-(4-fluorophenyl)propyl]-6′,7′-dihydro-3′-hydroxy-4′-oxo-spiro[cyclopentane-1,9′(4′H)-pyrimido[2,1-c][1,4]oxazine]-2′-carboxamide], the IC50 was 10 to 100 nM.

On to `Cc1ncnn1-c1cc(F)ccc1CNC(=O)c1nc2n(c(=O)c1O)CCOC21CCCC1` [Example 32, N-[[4-fluoro-2-(5-methyl-1H-1,2,4-triazol-1-yl)phenyl]methyl]-6′,7′-dihydro-3′-hydroxy-4′-oxo-spiro[cyclopentane-1,9′(4′H)-pyrimido[2,1-c][1,4]oxazine]-2′-carboxamide], for which the IC50 was in the range of 1 to 10 nM.

On to `O=C(NCc1ccccc1-n1cncn1)c1nc2n(c(=O)c1O)CCOC21CCCC1` [Example 33, 6′,7′-dihydro-3′-hydroxy-4′-oxo-N-[[2-(1H-1,2,4-triazol-1-yl)phenyl]methyl]-spiro[cyclopentane-1,9′(4′H)-pyrimido[2,1-c][1,4]oxazine]-2′-carboxamide], for which the IC50 is 1 to 10 nM.

As for `O=C(NCc1ccc(F)cc1N1CCCCS1(=O)=O)c1nc2n(c(=O)c1O)CCOC21CCCC1` [Example 34, N-[[4-fluoro-2-(tetrahydro-1,1-dioxido-2H-1,2-thiazin-2-yl)phenyl]methyl]-6′,7′-dihydro-3′-hydroxy-4′-oxo-spiro[cyclopentane-1,9′(4′H)-pyrimido[2,1-c][1,4]oxazine]-2′-carboxamide], the IC50 lay in the range of 1 to 10 nM.

Take `O=C(NCc1ccccc1N1CCCCS1(=O)=O)c1nc2n(c(=O)c1O)CCOC21CCCC1` [Example 35, 6′,7′-dihydro-3′-hydroxy-4′-oxo-N-[[2-(tetrahydro-1,1-dioxido-2H-1,2-thiazin-2-yl)phenyl]methyl]-spiro[cyclopentane-1,9′(4′H)-pyrimido[2,1-c][1,4]oxazine]-2′-carboxamide]: the IC50 was in the range of 10 to 100 nM.

Take `O=C(NCc1ccc(F)cc1)c1nc2n(c(=O)c1O)CCOC21CCOC1` (centres unmarked) [Example 36, N-[(4-fluorophenyl)methyl]-4,5,6′,7′-tetrahydro-3′-hydroxy-4′-oxo-spiro[furan-3(2H),9′(4′H)-pyrimido[2,1-c][1,4]oxazine]-2′-carboxamide]: the IC50 lay in the range of 1 to 10 nM.

Consider `Cc1cc(CNC(=O)c2nc3n(c(=O)c2O)CCOC32CCOC2)ccc1F` (centres unmarked) [Example 37, N-[(4-fluoro-3-methylphenyl)methyl]-4,5,6′,7′-tetrahydro-3′-hydroxy-4′-oxo-spiro[furan-3(2H),9′(4′H)-pyrimido[2,1-c][1,4]oxazine]-2′-carboxamide], for which the IC50 was 1 to 10 nM.

Regarding `O=C(NCc1ccc(F)cc1-n1cncn1)c1nc2n(c(=O)c1O)CCOC21CCOC1` (centres unmarked) [Example 38], the concentration for half-maximal inhibition (IC50) was 1 to 10 nM.

The values are drawn from US7419969B2 (Bristol-Myers Squibb Company, priority 2004, dated 2008).
